From ChEMBL document CHEMBL4840338, “Cudraflavone C from Artocarpus hirsutus as a Promising Inhibitor of Pathogenic, Multidrug-Resistant S. aureus, Persisters, and Biofilms: A New Insight into a Rational Explanation of Traditional Wisdom” (J Nat Prod, 2021)
In brackets after ≈: the same amount, converted by molar mass.

Experiments:
Staphylococcus aureus [1] = experiment: Bactericidal activity against Staphylococcus aureus ATCC 29213 assessed as reduction in bacterial load at 1X MIC preincubated for 6 hrs followed by subculturing on TSA plate for 18 to 20 hrs by time-kill assay; type: functional; conditions: time 24-26 hrs
Staphylococcus aureus [2] = experiment: Antibacterial activity against Staphylococcus aureus ATCC 29213 assessed as bacterial growth inhibition in presence of daptomycin incubated for 24 hrs by checkerboard assay; type: functional
Staphylococcus aureus [3] = experiment: Antibacterial activity against Staphylococcus aureus ATCC 29213 assessed as time for increase by 1 log10CFU at 1XMIC incubated for 1 hr followed by drug wash-out and measured every single 1 hr; type: functional
Staphylococcus aureus [4] = experiment: Antibacterial activity against methicillin-resistant Staphylococcus aureus NRS 10186 assessed as bacterial growth inhibition incubated for 16 to 18 hrs by broth microdilution method; type: functional; conditions: time 16-18 hrs
[5] = Selectivity index, ratio of CC50 for cytotoxicity against African green monkey Vero cells to MIC for antibacterial activity against Staphylococcus aureus ATCC 29213; type: toxicity, cell-based; conditions: read-out: Selectivity Index
Staphylococcus aureus [6] = experiment: Antibacterial activity against Staphylococcus aureus ATCC 29213 assessed as fractional inhibitory concentration in presence of daptomycin incubated for 24 hrs by checkerboard assay; type: functional
Staphylococcus aureus [7] = experiment: Antibacterial activity against Staphylococcus aureus ATCC 29213 assessed as fractional inhibitory concentration in presence of meropenem incubated for 24 hrs by checkerboard assay; type: functional
Staphylococcus aureus [8] = experiment: Antibacterial activity against Staphylococcus aureus ATCC 29213 assessed as fractional inhibitory concentration in presence of vancomycin incubated for 24 hrs by checkerboard assay; type: functional
Staphylococcus aureus [9] = experiment: Antibacterial activity against methicillin-resistant Staphylococcus aureus NRS 10192 assessed as bacterial growth inhibition incubated for 16 to 18 hrs by broth microdilution method; type: functional; conditions: time 16-18 hrs
[10] = Cytotoxicity against African green monkey Vero cells incubated for 72 hrs by MTT assay; type: cell-based; conditions: chlorocebus sabaeus
Enterococcus [11] = experiment: Antibacterial activity against vancomycin-susceptible Enterococcus NR 31888 assessed as bacterial growth inhibition incubated for 16 to 18 hrs by broth microdilution method; type: functional; conditions: time 16-18 hrs
Staphylococcus aureus [12] = experiment: Antibacterial activity against Staphylococcus aureus ATCC 29213 assessed as bacterial growth inhibition in presence of ceftazidime incubated for 24 hrs by checkerboard assay; type: functional
Staphylococcus aureus [13] = experiment: Antibacterial activity against methicillin-resistant Staphylococcus aureus NRS 10193 assessed as bacterial growth inhibition incubated for 16 to 18 hrs by broth microdilution method; type: functional; conditions: time 16-18 hrs
Staphylococcus aureus [14] = experiment: Antibacterial activity against Staphylococcus aureus ATCC 29213 assessed as bacterial growth inhibition in presence of gentamycin incubated for 24 hrs by checkerboard assay; type: functional
Staphylococcus aureus [15] = experiment: Antibacterial activity against Staphylococcus aureus ATCC 29213 assessed as fractional inhibitory concentration in presence of rifampicin incubated for 24 hrs by checkerboard assay; type: functional
Staphylococcus aureus [16] = experiment: Antibacterial activity against Staphylococcus aureus ATCC 29213 assessed as fractional inhibitory concentration in presence of linezolid incubated for 24 hrs by checkerboard assay; type: functional
Staphylococcus aureus [17] = experiment: Antibacterial activity against Staphylococcus aureus ATCC 29213 assessed as time for post-antibiotic effect at 1XMIC incubated for 1 hr followed by drug wash-out and measured every single 1 hr; type: functional
Staphylococcus aureus [18] = experiment: Antibiofilm activity against Staphylococcus aureus ATCC 29213 assessed as reduction in preformed bacterial biofilm at 10XMIC incubated for 24 hrs by crystal violet staining based microtiter plate reader assay; type: functional
Staphylococcus aureus [19] = experiment: microbe, parasite or virus in culture; conditions: ATCC 29213
Description: Antibacterial activity against Staphylococcus aureus ATCC 29213 assessed as bacterial growth inhibition incubated for 16 to 18 hrs by broth microdilution method

Enterococcus [20] = experiment: Antibacterial activity against vancomycin-susceptible Enterococcus NR 31887 assessed as bacterial growth inhibition incubated for 16 to 18 hrs by broth microdilution method; type: functional; conditions: time 16-18 hrs
Acinetobacter baumannii = experiment: Antibacterial activity against Acinetobacter baumannii BAA 1605 assessed as bacterial growth inhibition incubated for 16 to 18 hrs by broth microdilution method; type: functional; conditions: time 16-18 hrs
Staphylococcus aureus [21] = experiment: Antibacterial activity against methicillin-resistant Staphylococcus aureus NRS 10191 assessed as bacterial growth inhibition incubated for 16 to 18 hrs by broth microdilution method; type: functional; conditions: time 16-18 hrs
Staphylococcus aureus [22] = experiment: Antibacterial activity against Staphylococcus aureus ATCC 29213 assessed as bacterial growth inhibition in presence of levofloxacin incubated for 24 hrs by checkerboard assay; type: functional

With `CC(C)=CCc1c(O)cc2oc(-c3ccc(O)cc3O)c(CC=C(C)C)c(=O)c2c1O` [CUDRAFLAVONE C] the Activity (Staphylococcus aureus [1]) was 4 log10CFU/ml, the MIC (Staphylococcus aureus [2]) was 2 µg/mL and the Time (Staphylococcus aureus [3]) was 4 h. The MIC (Staphylococcus aureus [4]) was 4 µg/mL (≈ 9.47 µM), the selectivity ratio [5] was 25 and the FIC (Staphylococcus aureus [6]) was 1.5. For the same molecule, the FIC (Staphylococcus aureus [7]) was 1.5, the FIC (Staphylococcus aureus [8]) was 1.5 and the MIC (Staphylococcus aureus [9]) was 4 µg/mL (≈ 9.47 µM). It also gave a CC50 at 72 h [10] of 50 µg/mL (≈ 118 µM), an MIC (Enterococcus [11]) of 4 µg/mL (≈ 9.47 µM) and an MIC (Staphylococcus aureus [12]) of 2 µg/mL. It also gave an MIC (Staphylococcus aureus [13]) of 4 µg/mL (≈ 9.47 µM), an MIC (Staphylococcus aureus [14]) of 0.06 µg/mL and an FIC (Staphylococcus aureus [15]) of 1.5. For the same molecule, the FIC (Staphylococcus aureus [16]) was 1.5, the Time (Staphylococcus aureus [17]) was 2 h and the “inhibition (INH)” value (Staphylococcus aureus [18]) was 30.4%. The MIC (Staphylococcus aureus [19]) was 2 µg/mL (≈ 4.73 µM), the MIC (Enterococcus [20]) was 4 µg/mL (≈ 9.47 µM) and the MIC (Acinetobacter baumannii) was > 64 µg/mL. It also gave an MIC (Staphylococcus aureus [21]) of 4 µg/mL (≈ 9.47 µM) and an MIC (Staphylococcus aureus [22]) of 2 µg/mL.
